Earlier results as cited in patent publication EP0262930B1, “Process for forming a colour positive image” (KONICA CORPORATION, priority 1986, dated 1988).

Settings: partition coefficient n-octanol/water; solvents not desired in the color developing solution

SMILES | log P
CCCCCO [1-Pentanol] | log P 0.4 or more
OCCOCc1ccccc1 [2-Benzyloxyethanol] | log P 0.41
OCc1ccccc1 [Benzyl alcohol] | log P 1.0
NCc1ccccc1 [Benzylamine] | log P 0.4 or more
CCCCOCCOCCO [Diethylene glycol monobutyl ether] | log P 0.41.
Oc1ccccc1 [Phenol] | log P 0.4 or more
OCc1ccc(O)cc1 [p-Hydroxybenzyl alcohol] | log P 0.4 or more
Cc1ccc(CO)cc1 [p-Tolylcarbinol] | log P 1.36
